Experimental data as given in US8685730B2, “Methods and devices for differentiating pluripotent stem cells into cells of the pancreatic lineage” (Wisconsin Alumni Research Foundation, priority 2006, dated 2014).

How the values were obtained:
Assay type in all cases: cell-based, human
hESCs [1] = test: Quantitative RT-PCR (QPCR) of transcript accumulation in hESCs differentiated through Stages 1-4
Procedure: Culture of undifferentiated hESCs or human iPS (hiPS) cells. Cell lines used were NIH-approved H1 (WA01) and H9 (WA09) between passage 18 and 42, though hiPS cell lines derived from iPS (IMR-90)-4-MCB-1, iPS (Foreskin)-1-MCB-1, and DF 19-9-7T-MCB-01 may be used, as well as mouse ES cells.
Chemically defined medium comprised 80% DMEM/F12 and 20% Knockout serum replacement supplemented with 1 mM L-glutamine, 1% nonessential amino acids, 0.1 mM 2-mercaptoethanol and 4 ng/ml bFGF (all from Invitrogen). hESCs were cultured in 6-well plates on a feeder layer of irradiated MEFs, and the medium was refreshed daily. When the cells were nearly confluent, the ES cell colonies were split and passaged by detaching them from the feeder layer with 2 mg/ml dispase (Invitrogen). The colonies were then rinsed off the plates and filtered through a 70 μm cell strainer to remove MEFs. The colonies remained in the strainer. The retained cells were rinsed, pipetted into small pieces, and plated on growth factor-depleted Matrigel™ (BD Biosciences) at a density of 70% to 80% confluence in MEF-conditioned media.
Stage 1. On the day after splitting, differentiation was initiated by replacing the medium with medium containing 100 ng/ml bFGF, 100 ng/ml Activin A and 50 ng/ml BMP4 (FAB) in DMEM/F12 supplemented with 2% BSA, 1 mML-glutamine, 1% nonessential amino acids and 0.1 mM 2-mercaptoethanol for 3 to 4 days. The medium was refreshed daily.
(§1) Stage 2. FAB-treated cells were detached from the plate with 2 mg/ml dispase and grown in suspension as cell aggregates in MEF-conditioned medium (CM) for 2 days. On the third day, the medium was switched to DMEM/F12 with ITS supplement (BD, 5 μg/ml insulin+5 μg/ml transferrin+5 ng/ml selenous acid) and 50 ng/ml bFGF for 12 days in suspension culture dishes. The medium was refreshed every 2 days.
Stage 3. Cell aggregates were transferred to a 15 ml centrifuge tube and allowed to settle by gravity. The medium was aspirated, and the pellet-containing tube placed on ice. Two milligrams of Matrigel™ were diluted with 3 ml of cold DMEM/F12 added to the pellet at a density of 50 to 100 cell aggregates/ml. One half milliliter of this diluted Matrigel™/cell aggregate mixture was added onto a coverslip previously loaded into wells of a 24-well plate and incubated overnight at 37° C. in 5% CO2.
Nongelled Matrigel™ was aspirated from the wells and ITSFINE medium, a serum-free medium comprised of DMEM/F12 with ITS, 10 ng/ml FGF7 (R&D), 200 nM INGAP (PSN-4765, sequence: IGLHDPSHGTLPNGS), 10 mM nicotinamide (Sigma), 10 nM exendin-4 (Sigma), 4 μg/ml insulin (Gibco) and 2 g/L BSA (Sigma) was added for 21 to 28 days. The medium was refreshed every other day. As an alternative to DMEM/F12 only, DMEM/F12 may be used for the first 14 days of culture followed by 14 days of RPMI1640 as the base medium.
Stage 4. The sphere-structured cell masses were washed and the medium was replaced with RPMI1640 supplemented with 1×B27 (Invitrogen) and 10 mM nicotinamide for 1 to 2 weeks. Alternatively, the sphere-structured cell masses may be dislodged with 2 mg/ml dispase (two hundred microliters of per well of a 24-well plate), rinsed off the plate, and placed in suspension culture dishes in DMEM/F12 supplemented with 1×B27 and 10 mM nicotinamide for 1 to 2 weeks.
Total cellular RNA was extracted with Trizol (Invitrogen). cDNA was synthesized from 1 μg total RNA using a SuperScript First-Strand Synthesis kit (Invitrogen). Quantitative real time RT-PCR (QPCR) was performed using Assays-on-demand agents (Applied Biosystems) on an ABI PRISM 7700 Sequence Detection System (Applied Biosystems) for the following transcripts: foxa2, sox17, brachyury, ngn3, pdx1, insulin, glucagon, glut2 and an endogenous control, β-actin (see Table No. 2 for assay numbers). QPCR was performed according to the equipment manufacturer's instructions. Relative quantification was carried out using the comparative cycle threshold (CT) method recommended by the supplier. […]

hESCs [2] = test: Trophoblast differentiation (hCG and CDX2 expression); settings: for cdx2 expression at Stage 1: compared to undifferentiated hESCs
Procedure: FIG. 3 illustrates how treatment of hESCs with BMP4 and/or bFGF influences cell fate. Cultures of adherent, undifferentiated hESCs grown in MEF-conditioned media were treated for 1, 4, or 7 days and then assayed for human chorionic gonadotropin (hCG) protein expression (a) or hCG transcript accumulation by QPCR (b). For QPCR results, the fold change values and statistical analyses were calculated by comparing treated cells with cells grown to the same time point but without added growth factors (ctrl). B10, 10 ng/ml BMP4; B50, 50 ng/ml BMP4; B100, 100 ng/ml BMP4; B10F, 10 ng/ml BMP4+100 ng/ml bFGF; B50F, 50 ng/ml BMP4+100 ng/ml bFGF; B100F, 100 ng/ml BMP4+100 ng/ml bFGF. *, p<0.05; **, p<0.01.
FIG. 4 illustrates the expression of cdx2 transcript at Stage 1. Fold change values compared to undifferentiated hESCs are shown. […] CM, conditioned media; F, bFGF; A, Activin A; B, BMP4; inhib, SB431542 Activin signaling inhibitor; D/F, DMEM/F12; I, insulin. See Materials and Methods for growth factor concentrations.
(§2) Total cellular RNA was extracted with Trizol (Invitrogen). cDNA was synthesized from 1 μg total RNA using a SuperScript First-Strand Synthesis kit (Invitrogen). Quantitative real time RT-PCR (QPCR) was performed using Assays-on-demand agents (Applied Biosystems) on an ABI PRISM 7700 Sequence Detection System (Applied Biosystems) for the following transcripts: foxa2, sox17, brachyury, ngn3, pdx1, insulin, glucagon, glut2 and an endogenous control, β-actin (see Table No. 2 for assay numbers). QPCR was performed according to the equipment manufacturer's instructions. Relative quantification was carried out using the comparative cycle threshold (CT) method recommended by the supplier. Fold change was calculated as: 2^−ΔΔCT. Mean ΔΔCT values from QPCR analyses were compared using the unpaired, two-tailed Student's t-test. P values <0.05 were considered significant.

hESC = test: Q-PCR CTs of pancreas-associated transcripts in BMP4-treated, differentiated hESC
Procedure: as §2

hESCs [3] = test: Embryoid body formation and pancreatic differentiation in suspension culture
Procedure: as §1

NC(=O)c1ccc(-c2nc(-c3ccc4c(c3)OCO4)c(-c3ccccn3)[nH]2)cc1 [SB431542, reference compound]
expression of gsc, Mixl1, Brachyury and FOXA2 (hESCs [1]; added to cells treated with bFGF+BMP4 in CM): completely inhibited expression

BMP4: bone morphogenetic protein 4, member of the TGFβ superfamily
endoderm- (sox17, foxa2, pdx1) and pancreas-associated (pdx1, insulin) transcripts in EBs (hESCs [1]; hESCs grown on MEFs, 50 ng/ml): increased | cdx2 expression at Stage 1 (hESCs [2]): increase in cdx2 expression | trophoblast differentiation (hCG and CDX2 expression) (hESCs [2]; higher concentrations, alone, 7 days): high proportion of trophoblast differentiation | Q-PCR CT of Foxa2 (hESC; EB14): 24.0 | Q-PCR CT of Glucagon (hESC; EB14): 28.7 | Q-PCR CT of Glut2 (hESC; EB14): 23.0 | Q-PCR CT of Insulin (hESC; EB14): 34.6 | Q-PCR CT of Pdx1 (hESC; EB14): 26.7 | Q-PCR CT of T (hESC; EB14): 25.4 | Q-PCR CT of β-actin (hESC; EB14): 15.0 | Q-PCR CT of Foxa2 (hESC; EB14 + 14): 23.1 | Q-PCR CT of Glucagon (hESC; EB14 + 14): 22.0 | Q-PCR CT of Glut2 (hESC; EB14 + 14): 22.0 | Q-PCR CT of Insulin (hESC; EB14 + 14): 28.4 | Q-PCR CT of Pdx1 (hESC; EB14 + 14): 23.9 | Q-PCR CT of T (hESC; EB14 + 14): 27.9 | Q-PCR CT of β-actin (hESC; EB14 + 14): 14.7 | Q-PCR CT of Foxa2 (hESC; EB14 + 21): 23.0 | Q-PCR CT of Glucagon (hESC; EB14 + 21): 21.0 | Q-PCR CT of Glut2 (hESC; EB14 + 21): 21.1 | Q-PCR CT of Insulin (hESC; EB14 + 21): 27.8 | Q-PCR CT of Pdx1 (hESC; EB14 + 21): 24.3 | Q-PCR CT of T (hESC; EB14 + 21): 28.4 | Q-PCR CT of β-actin (hESC; EB14 + 21): 14.9 | Q-PCR CT of Foxa2 (hESC; EB14 + 28): 22.7 | Q-PCR CT of Glucagon (hESC; EB14 + 28): 20.2 | Q-PCR CT of Glut2 (hESC; EB14 + 28): 20.4 | Q-PCR CT of Insulin (hESC; EB14 + 28): 26.0 | Q-PCR CT of Pdx1 (hESC; EB14 + 28): 23.0 | Q-PCR CT of T (hESC; EB14 + 28): 28.5 | Q-PCR CT of β-actin (hESC; EB14 + 28): 15.4 | Q-PCR CT of Foxa2 (hESC; hESC + BMP4): 25.6 | Q-PCR CT of Glucagon (hESC; hESC + BMP4): >50 | Q-PCR CT of Glut2 (hESC; hESC + BMP4): 32.8 | Q-PCR CT of Insulin (hESC; hESC + BMP4): >50 | Q-PCR CT of Pdx1 (hESC; hESC + BMP4): 36.4 | Q-PCR CT of T (hESC; hESC + BMP4): 25.6 | Q-PCR CT of β-actin (hESC; hESC + BMP4): 15.0

insulin: a PI3K agonist, component of serum replacement
induction of Brachyury (hESCs [1]; combined with Activin A): significantly increased | induction of SOX17 (hESCs [1]; combined with Activin A): significantly decreased

B1: Activin A: member of the TGF-β superfamily (protein, UniProt P08476 311-426, looked up)
Inhibin beta A chain: GLECDGKVNICCKKQFFVSFKDIGWNDWIIAPSGYHANYCEGECPSHIAGTSGSSLSFHSTVINHYRMRGHSPFANLKSCCVPTKLRPMSMLYYDDGQNIIKKDIQNMIVEECGCS
modifications: Inhibin beta A chain
notes: member of the TGF-β superfamily
induction of MIXL1, GSC, T, SOX17 and FOXA2 (hESCs [1]; CDM, compared to undifferentiated cells in CM): significant induction | induction of pancreatic cell differentiation (hESCs [3]; 5, 50 or 100 ng/ml in serum-free medium, treatment alone): cannot induce pancreatic cell differentiation | EB formation from treated hESCs (hESCs [3]; Stage 1 treatment in CDM): failed to develop | cdx2 expression at Stage 1 (hESCs [2]): essentially eliminates expression of cdx2

B2: noggin: a known BMP antagonist (protein, UniProt Q13253 28-232, looked up)
Noggin: QHYLHIRPAPSDNLPLVDLIEHPDPIFDPKEKDLNETLLRSLLGGHYDPGFMATSPPEDRPGGGGGAAGGAEDLAELDQLLRQRPSGAMPSEIKGLEFSEGLAQGKKQRLSKKLRRKLQMWLWSQTFCPVLYAWNDLGSRFWPRYVKVGSCFSKRSCSVPEGMVCKPSKSVHLTVLRWRCQRRGGQRCGWIPIQYPIISECKCSC
effect of BMP4 on endoderm- and pancreas-associated transcripts (hESCs [1]; 300 ng/ml, simultaneous incubation with 50 ng/ml BMP4): eliminated | expression of SOX17, FOXA2, Brachyury and PDX1 (hESCs [1]; added during Stage 1, read at the end of Stage 2): significantly reduced levels of expression
